The values below come from PubChem BioAssay AID330 (DTP/NCI, 2004).

For this test, the system named is P388 leukemia ip, CD2F1 mice, survival T/C. Briefly: NCI In Vivo Anticancer Drug Screen. Data for tumor model P388 Leukemia (intraperitoneal) in CD2F1 (CDF1) mice. The following applies: endpoint: median survival time, higher = longer survival. Summed up: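 Mice carrying the transplanted tumor received test compound or vehicle. Survival was recorded in each group, and the value is the treated-group measurement divided by that of the vehicle-treated control group.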

Setting [1] is: dose: 50.0 mg/kg/injection, schedule: Q01DX009 (ip), vehicle: saline.
Where [2] appears, read: dose: 100.0 mg/kg/injection, schedule: Q01DX009 (ip), vehicle: saline.
Setting [3] is: dose: 60.0 mg/kg/injection, schedule: Q01DX005 (ip), vehicle: saline with Tween-80.
The mark [4] stands for this setting: dose: 120.0 mg/kg/injection, schedule: Q01DX005 (ip), vehicle: saline with Tween-80.
Setting [5] is: dose: 240.0 mg/kg/injection, schedule: Q01DX005 (ip), vehicle: saline with Tween-80.
[6] abbreviates: dose: 100.0 mg/kg/injection, schedule: Q04DX003 (ip), vehicle: Klucel (hydroxypropylcellulose) (HPC).
The mark [7] stands for this setting: dose: 200.0 mg/kg/injection, schedule: Q04DX003 (ip), vehicle: Klucel (hydroxypropylcellulose) (HPC).
Where [8] appears, read: dose: 400.0 mg/kg/injection, schedule: Q04DX003 (ip), vehicle: Klucel (hydroxypropylcellulose) (HPC).
Setting [9] is: dose: 25.0 mg/kg/injection, schedule: Q01DX005 (ip), vehicle: Klucel (hydroxypropylcellulose) (HPC).

Several values for one entry are separate records, joined by “and”; a condition that tells them apart may be missing. Equal entries are not always repeated. Toxic doses and inconclusive results are not listed.

Regarding `COc1cccc(CSC(C(=O)O)c2ccccc2)c1` (stereo unspecified), the T/C (dose: 50.0 mg/kg/injection, schedule: Q01DX009 (ip), vehicle: saline with Tween-80) was 107 % of control; the T/C (dose: 100.0 mg/kg/injection, schedule: Q01DX009 (ip), vehicle: saline with Tween-80) is 101 % of control; the T/C (dose: 200.0 mg/kg/injection, schedule: Q01DX009 (ip), vehicle: saline with Tween-80) was 117 % of control.

With `Cc1ccc(N2C(=O)CSC2=S)cc1Cl`, the T/C is, setting by setting: under setting [1], 103 % of control; under setting [2], 94 % of control; (dose: 200.0 mg/kg/injection, schedule: Q01DX009 (ip), vehicle: saline) 100 % of control.

Regarding `O=C(Nc1ccc(C2=NCCCN2)cc1)c1ccc(NC(=O)c2ccc(C3=NCCCN3)cc2)cc1`, the T/C by setting is: (dose: 5.0 mg/kg/injection, schedule: Q01DX009 (ip), vehicle: saline) 200 % of control; (dose: 10.0 mg/kg/injection, schedule: Q01DX009 (ip), vehicle: saline) 250 % of control; (dose: 12.5 mg/kg/injection, schedule: Q04DX003 (ip), vehicle: saline) 160 % of control; (dose: 20.0 mg/kg/injection, schedule: Q04DX003 (ip), vehicle: saline with Tween-80) 186 % of control; (dose: 375.0 micrograms/kg/injection, schedule: Q04DX003 (ip), vehicle: saline) 109 % of control; (dose: 750.0 micrograms/kg/injection, schedule: Q04DX003 (ip), vehicle: saline) 100 % of control. For the same compound, the T/C (dose: 1500.0 micrograms/kg/injection, schedule: Q04DX003 (ip), vehicle: saline) is 109 % of control.

For `Cc1nc(Br)c(C(O)c2ccccc2)n1C` (stereo unspecified), the T/C is 103 % of control under setting [3], 92 % of control under setting [4] and 97 % of control under setting [5].

Regarding `O=[N+]([O-])c1cccn2nc(C3OC(CO)C(O)C3O)nc12` (stereo unspecified), the T/C reads like this: (dose: 6.25 mg/kg/injection, schedule: Q01DX009 (ip), vehicle: water) 109 % of control; (dose: 12.5 mg/kg/injection, schedule: Q01DX009 (ip), vehicle: water) 104 % of control; (dose: 25.0 mg/kg/injection, schedule: Q01DX009 (ip), vehicle: water) 113 % of control; (dose: 50.0 mg/kg/injection, schedule: Q01DX009 (ip), vehicle: water) 98 % of control; (dose: 100.0 mg/kg/injection, schedule: Q01DX009 (ip), vehicle: water) 109 % of control.

`COc1ccc(NC(=O)c2cc3c(cc2Br)OCO3)cc1`: the T/C (dose: 12.5 mg/kg/injection, schedule: Q01DX009 (ip), vehicle: other) is 102 % of control; the T/C (dose: 25.0 mg/kg/injection, schedule: Q01DX009 (ip), vehicle: other) is 96 % of control; the T/C (dose: 50.0 mg/kg/injection, schedule: Q01DX009 (ip), vehicle: other) was 100 % of control; the T/C (dose: 100.0 mg/kg/injection, schedule: Q01DX009 (ip), vehicle: other) was 93 % of control; the T/C (dose: 200.0 mg/kg/injection, schedule: Q01DX009 (ip), vehicle: other) is 99 % of control; the T/C (dose: 400.0 mg/kg/injection, schedule: Q01DX009 (ip), vehicle: other) was 89 % of control.

As for `Nc1cc(-c2ccc(Br)cc2)nn1-c1nc(-c2ccc(Br)cc2)cs1`, the T/C (dose: 25.0 mg/kg/injection, schedule: Q01DX009 (ip), vehicle: Klucel (hydroxypropylcellulose) (HPC)) is 87 % of control; the T/C (dose: 50.0 mg/kg/injection, schedule: Q01DX009 (ip), vehicle: Klucel (hydroxypropylcellulose) (HPC)) is 86 % of control; the T/C (dose: 100.0 mg/kg/injection, schedule: Q01DX009 (ip), vehicle: Klucel (hydroxypropylcellulose) (HPC)) is 87 % of control; the T/C (dose: 200.0 mg/kg/injection, schedule: Q01DX009 (ip), vehicle: Klucel (hydroxypropylcellulose) (HPC)) was 89 % of control.

Consider `O=c1oc2c3c4c(cc2c2c1CCC2)CCCN4CCC3`, for which the T/C by setting is: under setting [6], 102 % of control; under setting [7], 101 % of control; under setting [8], 100 % of control.

As to `COc1ccc(C(CC(=O)N(CCCl)CCCl)CC(=O)N(CCCl)CCCl)cc1`, the T/C (dose: 100.0 mg/kg/injection, schedule: Q01DX001 (ip), vehicle: suspension in saline) was 108 % of control and the T/C (dose: 200.0 mg/kg/injection, schedule: Q01DX001 (ip), vehicle: suspension in saline) was 119 % of control.

For the compound `C[C@H]1CC[C@@H]2[C@@H](C)[C@H]3[C@H](C[C@H]4[C@@H]5CC=C6C[C@@H](O)CC[C@]6(C)[C@H]5C[C@H](O)[C@]34C)N2C1`, the T/C under setting [9] is 101 % of control and 105 % of control.

Take `O=C(O)CCN1C(=O)CCC1=O`: the T/C is 100 % of control (dose: 100.0 mg/kg/injection, schedule: Q04DX003 (ip), vehicle: saline with Tween-80); 95 % of control (dose: 200.0 mg/kg/injection, schedule: Q04DX003 (ip), vehicle: saline with Tween-80); 91 % of control (dose: 400.0 mg/kg/injection, schedule: Q04DX003 (ip), vehicle: saline with Tween-80).

On to `COC(=O)CC1(O)C(=O)OCc2c1cc1n(c2=O)Cc2c-1nc1ccccc1c2OC` (stereo unspecified), for which the T/C runs as follows: (dose: 12.5 mg/kg/injection, schedule: Q01DX009 (ip), vehicle: saline) 167 % of control; under setting [1], 194 % of control; under setting [2], 150 % of control and 184 % of control; (dose: 100.0 mg/kg/injection, schedule: Q01DX009 (ip), vehicle: suspension in saline) 86 % of control.

For `O=C1CN(CO)C(=O)N1CO`, the T/C is, setting by setting: under setting [9], 114 % of control; (dose: 50.0 mg/kg/injection, schedule: Q01DX005 (ip), vehicle: Klucel (hydroxypropylcellulose) (HPC)) 116 % of control and 117 % of control; (dose: 100.0 mg/kg/injection, schedule: Q01DX005 (ip), vehicle: Klucel (hydroxypropylcellulose) (HPC)) 116 % of control.

Regarding `COc1ccc2[nH]c3c(C)c4cc[n+](C)c(C)c4cc3c2c1`, the T/C is 97 % of control (dose: 1.56 mg/kg/injection, schedule: Q04DX002 (ip), vehicle: water); 104 % of control (dose: 3.12 mg/kg/injection, schedule: Q04DX002 (ip), vehicle: water); 107 % of control (dose: 6.25 mg/kg/injection, schedule: Q04DX002 (ip), vehicle: water); 200 % of control (dose: 10.0 mg/kg/injection, schedule: Q04DX002 (ip), vehicle: water); 113 % of control (dose: 12.5 mg/kg/injection, schedule: Q04DX002 (ip), vehicle: water); 115 % of control (dose: 20.0 mg/kg/injection, schedule: Q04DX002 (ip), vehicle: water). For the same compound, the T/C (dose: 25.0 mg/kg/injection, schedule: Q04DX002 (ip), vehicle: water) was 117 % of control; the T/C (dose: 40.0 mg/kg/injection, schedule: Q04DX002 (ip), vehicle: water) was 112 % of control; the T/C (dose: 50.0 mg/kg/injection, schedule: Q04DX002 (ip), vehicle: water) was 123 % of control.

Take `C/C(CCCC(C)(C)C(=O)O)=N\NC(N)=O`: the T/C under setting [3] is 100 % of control, the T/C under setting [4] is 94 % of control and the T/C under setting [5] is 97 % of control.

Consider `NC(=O)C(O)C1OC(COCc2ccccc2)C(OCc2ccccc2)C1OCc1ccccc1` (stereo unspecified), for which the T/C is 90 % of control and 104 % of control (dose: 12.5 mg/kg/injection, schedule: Q01DX009 (ip), vehicle: distilled water + Tween-80); 92 % of control and 95 % of control (dose: 25.0 mg/kg/injection, schedule: Q01DX009 (ip), vehicle: distilled water + Tween-80); 106 % of control and 100 % of control (dose: 50.0 mg/kg/injection, schedule: Q01DX009 (ip), vehicle: distilled water + Tween-80); 100 % of control and 89 % of control (dose: 100.0 mg/kg/injection, schedule: Q01DX009 (ip), vehicle: distilled water + Tween-80); 104 % of control and 97 % of control (dose: 200.0 mg/kg/injection, schedule: Q01DX009 (ip), vehicle: distilled water + Tween-80).

For the compound `CC(C)=C(Nc1ccccc1)NC(C)C`, the T/C is 103 % of control (dose: 6.25 mg/kg/injection, schedule: Q01DX005 (ip), vehicle: saline); 103 % of control and 104 % of control (dose: 12.5 mg/kg/injection, schedule: Q01DX005 (ip), vehicle: saline); 106 % of control and 120 % of control (dose: 25.0 mg/kg/injection, schedule: Q01DX005 (ip), vehicle: saline); 118 % of control (dose: 50.0 mg/kg/injection, schedule: Q01DX005 (ip), vehicle: saline).

Turning to `O=C(OCCn1c(=O)n(CCOC(=O)c2cccc([N+](=O)[O-])c2)c(=O)n(CCOC(=O)c2cccc([N+](=O)[O-])c2)c1=O)c1cccc([N+](=O)[O-])c1`, the T/C is 93 % of control under setting [6], 86 % of control under setting [7] and 87 % of control under setting [8].
